Assay results reported in ChEMBL document CHEMBL3301361, “Experimental in vitro DMPK and physicochemical data on a set of publicly disclosed compounds”.
In brackets after ≈: the same amount, converted by molar mass.

Key:
[1] = in vitro; details: human
[2] = physchem; details: pH 7.4 buffer
[3] = physchem; details: octan-1-ol/water

CCN(C(=O)Cc1ccc(S(C)(=O)=O)cc1)C1CCN(CCC(c2ccccc2)c2ccc(C)cc2)CC1 (configuration not stated)
microsomal CLint ([1]; liver microsomes): 66 µL/min/mg
solubility thermodynamic [2]: 75.9 µM (≈ 40.4 µg/mL)

Cc1ccc2[nH]ccc2c1-c1nc(N2CCOCC2)cc(C2(S(C)(=O)=O)CC2)n1
microsomal CLint ([1]; liver microsomes): 5.75 µL/min/mg
solubility thermodynamic [2]: 95.5 µM (≈ 39.4 µg/mL)
logD ([3]; pH 7.4, LogD7.4): 1.7

CN(CCOc1ccccc1-c1cc(C(N)=O)c(NC(N)=O)s1)Cc1ccccc1
microsomal CLint ([1]; liver microsomes): > 150 µL/min/mg
solubility thermodynamic [2]: 1.5 µM (≈ 0.637 µg/mL)
logD ([3]; pH 7.4, LogD7.4): 3.46

OC[C@H]1C[C@@H](n2nnc3c(N[C@@H]4C[C@H]4c4ccccc4)nc(SCCC(F)(F)F)nc32)[C@H](O)[C@@H]1O
microsomal CLint ([1]; microsomes): < 3 µL/min/mg
solubility thermodynamic [2]: 0.3 µM (≈ 0.153 µg/mL)
logD ([3]; pH 7.4): 4.06

COc1ccc(CC(=O)N(C)C2CCN(CCC(c3ccccc3)c3ccccc3)CC2)cc1OC
microsomal CLint ([1]; liver microsomes): 112 µL/min/mg
solubility thermodynamic [2]: 324 µM (≈ 157 µg/mL)
logD ([3]; pH 7.4, LogD7.4): 3.4

Cc1ccc(C(=O)Nc2nccs2)cc1-n1cnc2ccc(N3CCN(C)CC3)cc2c1=O
microsomal CLint ([1]; liver microsomes): 7 µL/min/mg
solubility thermodynamic [2]: 91.2 µM (≈ 42 µg/mL)
logD ([3]; pH 7.4, LogD7.4): 2.56

CC(=O)Nc1ccc(CNc2[nH]nc3cccc(Oc4ccc(S(C)(=O)=O)cc4)c23)cc1
microsomal CLint ([1]; liver microsomes): 75 µL/min/mg
solubility thermodynamic [2]: 4.3 µM (≈ 1.94 µg/mL)
logD ([3]; pH 7.4, LogD7.4): 2.63

CCN(C(=O)Cc1ccc(S(C)(=O)=O)cc1)C1CCN(CCC(c2ccccc2)c2ccc(NC(=O)C(C)(C)C)cc2)CC1 (configuration not stated)
microsomal CLint ([1]; liver microsomes): < 3 µL/min/mg
solubility thermodynamic [2]: 100 µM (≈ 61.8 µg/mL)
logD ([3]; pH 7.4, LogD7.4): 2.98

CCN(C(=O)Cc1ccc(S(C)(=O)=O)cc1)C1CCN(CC[C@@H](c2ccccc2)N2CCN(S(=O)(=O)C(F)(F)F)CC2)CC1
microsomal CLint ([1]; liver microsomes): 18 µL/min/mg
solubility thermodynamic [2]: 288 µM (≈ 190 µg/mL)

Fc1cnc(Nc2ccccc2)nc1Nc1ccccc1
microsomal CLint ([1]; liver microsomes): 7 µL/min/mg
solubility thermodynamic [2]: 1.3 µM (≈ 0.364 µg/mL)

CSc1nccc(Nc2cc(NC(=O)c3cc(F)cc(N4CCOCC4)c3)ccc2C)n1
microsomal CLint ([1]; liver microsomes): 83 µL/min/mg
solubility thermodynamic [2]: 0.7 µM (≈ 0.317 µg/mL)

Nc1nnc(-c2ccccc2)s1
microsomal CLint ([1]; liver microsomes): 3 µL/min/mg
logD ([3]; pH 7.4, LogD7.4): 1.8

Cc1cccc(Nc2ccccc2C(=O)O)c1C [MEFENAMIC ACID]
microsomal CLint ([1]; microsomes): 9 µL/min/mg
logD ([3]; pH 7.4, LogD7.4): 1.89

COc1ccccc1CNCc1ccc(CCNC[C@H](O)c2ccc(O)c3[nH]c(=O)sc23)cc1
microsomal CLint ([1]; microsomes): 22 µL/min/mg
logD ([3]; pH 7.4, LogD7.4): 0.15

O=C(O)c1cccc(-c2ccc3c(C(=O)NCC45CC6CC(CC(C6)C4)C5)c(Cl)ccc3n2)c1
microsomal CLint ([1]; liver microsomes): 33 µL/min/mg
logD ([3]; pH 7.4, LogD7.4): 2.84

CN(C(=O)Cc1ccc(F)cc1)C1CCN(CCC(c2ccccc2)c2ccccc2)CC1
microsomal CLint ([1]; liver microsomes): < 3 µL/min/mg
solubility thermodynamic [2]: 129 µM (≈ 57.3 µg/mL)

CCCC1CCCCC(N)=N1 (configuration not stated)
microsomal CLint ([1]; liver microsomes): < 3 µL/min/mg
logD ([3]; pH 7.4, LogD7.4): 1.1

Nc1ccc(S(=O)(=O)c2ccc(N)cc2)cc1 [DAPSONE]
microsomal CLint ([1]; microsomes): < 3 µL/min/mg
logD ([3]; pH 7.4, LogD7.4): 0.88

N#Cc1cc(Cl)ccc1O[C@H](CCN)c1ccccc1
microsomal CLint ([1]; liver microsomes): < 3 µL/min/mg
logD ([3]; pH 7.4, LogD7.4): 0.91

Nc1c(C(=O)c2cccc(OC[C@H](O)CO)c2)cnn1-c1ccc(F)cc1
microsomal CLint ([1]; microsomes): < 3 µL/min/mg
logD ([3]; pH 7.4, LogD7.4): 1.94

Cc1c(Sc2ccc(Cl)cc2)c2cc(Cl)ccc2n1C(C)C(=O)O (configuration not stated)
microsomal CLint ([1]; microsomes): < 3 µL/min/mg
logD ([3]; pH 7.4, LogD7.4): 3.56

Cc1ccc2c(c1)c(-c1ccnc3ccc(C(F)(F)F)cc13)c(C)n2CC(=O)O
microsomal CLint ([1]; liver microsomes): 23 µL/min/mg
logD ([3]; pH 7.4, LogD7.4): 1.78

O=C(CCc1ccccc1O)Nc1ccccc1
microsomal CLint ([1]; liver microsomes): 30 µL/min/mg
logD ([3]; pH 7.4, LogD7.4): 2.71

Nc1nc2nc(SCc3cccc(F)c3F)[nH]c(=O)c2s1
microsomal CLint ([1]; liver microsomes): < 3 µL/min/mg
logD ([3]; pH 7.4, LogD7.4): 2.5

CC1CCC(CC(=O)Nc2cccc3ncccc23)CC1 (configuration not stated)
microsomal CLint ([1]; liver microsomes): 38 µL/min/mg
logD ([3]; pH 7.4, LogD7.4): 3.56

CS(=O)(=O)C1(c2cc(N3CCOCC3)nc(-c3cccc4[nH]ccc34)n2)CC1
microsomal CLint ([1]; liver microsomes): 11.2 µL/min/mg
solubility thermodynamic [2]: 4.6 µM (≈ 1.83 µg/mL)

Cc1nc(CSc2nc(N[C@H](C)CO)c3sc(N)nc3n2)cs1
microsomal CLint ([1]; microsomes): 3 µL/min/mg
logD ([3]; pH 7.4, LogD7.4): 1.73

C=CCN(C(=O)Cc1ccc(S(C)(=O)=O)cc1)C1CCN(CCC(c2ccccc2)c2ccccc2)CC1
microsomal CLint ([1]; liver microsomes): 10 µL/min/mg
logD ([3]; pH 7.4, LogD7.4): 3.1

CC(NCC(O)c1ccc([N+](=O)[O-])cc1)C12CC3CC(CC(C3)C1)C2 (configuration not stated)
microsomal CLint ([1]; liver microsomes): 30.5 µL/min/mg
logD ([3]; pH 7.4, LogD7.4): 3.53

Cc1ccc2c(c1)c(-c1ccnc3c(C#N)cccc13)c(C)n2CC(=O)O
microsomal CLint ([1]; liver microsomes): < 3 µL/min/mg
logD ([3]; pH 7.4, LogD7.4): 0.52

COCCNCc1ccc(-c2cc(C(N)=O)c(NC(N)=O)s2)cc1
microsomal CLint ([1]; liver microsomes): 3 µL/min/mg
logD ([3]; pH 7.4, LogD7.4): 0.87

N=C(N)c1cc2c(I)cccc2s1
microsomal CLint ([1]; liver microsomes): 4 µL/min/mg
logD ([3]; pH 7.4, LogD7.4): 0.74

CC(=O)c1ccc(N2CCN(S(=O)(=O)C[C@]34CC[C@H](CC3=O)C4(C)C)CC2)nc1
microsomal CLint ([1]; liver microsomes): > 150 µL/min/mg
logD ([3]; pH 7.4, LogD7.4): 2.21

NC1CCN(c2nccc(C(=O)NCC34CC5CC(CC(C5)C3)C4)c2Cl)CC1
microsomal CLint ([1]; microsomes): 41 µL/min/mg
logD ([3]; pH 7.4, LogD7.4): 1.19

C[C@H]1CN(Cc2cc(Cl)ccc2OCC(=O)O)CCN1C(=O)Cc1cccc(Cl)c1
microsomal CLint ([1]; microsomes): < 3 µL/min/mg
logD ([3]; pH 7.4): 0.78

CC1CN(C(=O)c2cc3ccccc3[nH]2)CCN1 (configuration not stated)
microsomal CLint ([1]; liver microsomes): 8 µL/min/mg
logD ([3]; pH 7.4, LogD7.4): 0.94

O=C(CC12CC3CC(CC(C3)C1)C2)Nc1c(Cl)ccc2nc(CN3CCN(CCO)CC3)ccc12
microsomal CLint ([1]; liver microsomes): 79.5 µL/min/mg
logD ([3]; pH 7.4, LogD7.4): 2.93

Cc1cnc(Oc2ccc(-n3ccnc3)cc2)nc1Oc1ccc2c(c1)OCO2
microsomal CLint ([1]; liver microsomes): < 3 µL/min/mg
logD ([3]; pH 7.4, LogD7.4): 3.56

O=C(CC12CC3CC(CC(C3)C1)C2)Nc1ccc2[nH]ncc2c1
microsomal CLint ([1]; liver microsomes): 21 µL/min/mg
logD ([3]; pH 7.4, LogD7.4): 4.03

Nc1nc(Nc2ccc(F)c(Cl)c2)c2nc[nH]c2n1
microsomal CLint ([1]; liver microsomes): 15 µL/min/mg
logD ([3]; pH 7.4, LogD7.4): 2.75

CSc1nc(-c2ccccc2)nn1Cc1ccccc1
microsomal CLint ([1]; microsomes): 116 µL/min/mg
logD ([3]; pH 7.4, LogD7.4): 3.83

C(#Cc1n[nH]c2ccccc12)c1ccccc1
microsomal CLint ([1]; microsomes): 35 µL/min/mg
logD ([3]; pH 7.4, LogD7.4): 4.31

O=C(NCC1CCCCC1)c1cc(-n2ncc(=O)[nH]c2=O)ccc1Cl
microsomal CLint ([1]; microsomes): 8.5 µL/min/mg
logD ([3]; pH 7.4, LogD7.4): 1.26

CC(=O)Nc1ccc(O)cc1OC[C@@H](O)CN1CCC2(CC1)Cc1cc(F)ccc1O2
microsomal CLint ([1]; microsomes): < 3 µL/min/mg
logD ([3]; pH 7.4, LogD7.4): 2.1

CCN(C(=O)NCc1c(F)cccc1F)C1CCN(CCC(c2ccccc2)c2ccccc2)CC1
microsomal CLint ([1]; liver microsomes): 6 µL/min/mg
solubility thermodynamic [2]: 24 µM (≈ 11.8 µg/mL)

Nc1nc(Nc2cccc(Br)c2)c2[nH]cnc2n1
microsomal CLint ([1]; microsomes): 16 µL/min/mg
logD ([3]; pH 7.4, LogD7.4): 3.04

CN(C)CC(O)COc1ccc(Nc2ncc(Cl)c(Nc3ccccc3)n2)cc1 (configuration not stated)
microsomal CLint ([1]; liver microsomes): 5 µL/min/mg
solubility thermodynamic [2]: 38.9 µM (≈ 16.1 µg/mL)

CCO[C@@H]1OC(=O)C[C@@H]1NC(=O)[C@@H]1CCCN2C(=O)CC[C@H](NC(=O)c3nccc4ccccc34)C(=O)N12
microsomal CLint ([1]; liver microsomes): < 3 µL/min/mg
logD ([3]; pH 7.4, LogD7.4): 1.16

CCCN1CCC(Oc2nccc(Nc3cc(NC(=O)c4cccc(N5CCOCC5)c4)ccc3C)n2)CC1
microsomal CLint ([1]; liver microsomes): 54 µL/min/mg
logD ([3]; pH 7.4, LogD7.4): 2.6

Cc1ccc(C(=O)Nc2ccon2)cc1NC(=O)c1cnn(-c2ccccc2F)c1N
microsomal CLint ([1]; liver microsomes): < 3 µL/min/mg
logD ([3]; pH 7.4, LogD7.4): 2.6

c1ccc2c(c1)[nH]c1cnccc12 [NORHARMANE]
microsomal CLint ([1]; liver microsomes): 89 µL/min/mg
solubility thermodynamic [2]: 339 µM (≈ 57 µg/mL)

CCN(C(=O)Cc1ccc([N+](=O)[O-])cc1)C1CCN(CCC(c2ccccc2)c2ccccc2)CC1
microsomal CLint ([1]; liver microsomes): 13 µL/min/mg
logD ([3]; pH 7.4, LogD7.4): 4.1

CCc1ccc(CCNCCCSCCNC[C@H](O)c2ccc(O)c3[nH]c(=O)sc23)cc1
microsomal CLint ([1]; liver microsomes): 68 µL/min/mg
logD ([3]; pH 7.4, LogD7.4): 0.86

O=c1[nH]c2c(O)ccc([C@@H](O)CNCCCSCCNCCc3cccc(Cl)c3Cl)c2s1
microsomal CLint ([1]; liver microsomes): 35 µL/min/mg
logD ([3]; pH 7.4, LogD7.4): 1.74

Nc1nc(NCc2ccccc2)nc2c1nc(O)n2Cc1ccccc1
microsomal CLint ([1]; microsomes): 11 µL/min/mg
logD ([3]; pH 7.4, LogD7.4): 3.69
